In US20190364899A1, “MICROBIOCIDAL OXADIAZOLE DERIVATIVES” (SYNGENTA PARTICIPATIONS AG, priority 2015, published 2019):

Assays:
[1] = test system: Glomerella Lagenarium (Colletotrichum Lagenarium); assay: Fungicidal activity against Glomerella lagenarium (Colletotrichum lagenarium) liquid culture / cucumber / preventative (anthracnose); assay type: cell-based; settings: Colletotrichum orbiculare; 20 ppm in the applied formulation; liquid culture in PDB, growth inhibition measured photometrically 3 to 4 days after application; compared to untreated; read-out: disease control
Protocol: (§1) General examples of leaf disk tests in well plates: Leaf disks or leaf segments of various plant species are cut from plants grown in a greenhouse. The cut leaf disks or segments are placed in multiwell plates (24-well format) onto water agar. The leaf disks are sprayed with a test solution before (preventative) or after (curative) inoculation. Compounds to be tested are prepared as DMSO solutions (max. 10 mg/ml) which are diluted to the appropriate concentration with 0.025% Tween20 just before spraying. The inoculated leaf disks or segments are incubated under defined conditions (temperature, relative humidity, light, etc.) according to the respective test system. A single evaluation of disease level is carried out 3 to 14 days after inoculation, depending on the pathosystem. Percent disease control relative to the untreated check leaf disks or segments is then calculated. General examples of liquid culture tests in well plates: Mycelia fragments or conidia suspensions of a fungus prepared either freshly from liquid cultures of the fungus or from cryogenic storage, are directly mixed into nutrient broth. DMSO solutions of the test compound (max. 10 mg/ml) are diluted with 0.025% Tween20 by a factor of 50 and 10 μl of this solution is pipetted into a microtiter plate (96-well format). The nutrient broth containing the fungal spores/mycelia fragments is then added to give an end concentration of the tested compound. The test plates are incubated in the dark at 24° C. and 96% relative humidity. The inhibition of fungal growth is determined photometrically after 2 to 7 days, depending on the pathosystem, and percent antifungal activity relative to the untreated check is calculated.
Example 4: Fungicidal Activity Against Glomerella Lagenarium (Colletotrichum Lagenarium) Liquid Culture/Cucumber/Preventative (Anthracnose)
Conidia of the fungus from cryogenic storage are directly mixed into nutrient broth (PDB—potato dextrose broth). After placing a (DMSO) solution of test compound into a microtiter plate (96-well format), the nutrient broth containing the fungal spores is added. The test plates are incubated at 24° C. and the inhibition of growth is measured photometrically 3 to 4 days after application.
The following compounds at 20 ppm in the applied formulation give at least 80% disease control in this test when compared to untreated control under the same conditions, which show extensive disease development.

[2] = test system: Puccinia Recondite f. Sp. Tritici; assay: Fungicidal activity against Puccinia recondita f. sp. tritici / wheat / leaf disc curative (brown rust); assay type: in vivo; settings: foliar, 24 h, 200 ppm in the applied formulation, wheat leaf segments cv. Kanzler, applied 1 day after inoculation, compared to untreated, read-out: disease control
Protocol: as §1
Example 2: Fungicidal Activity Against Puccinia Recondite f. Sp. Tritici Wheat/Leaf Disc Curative (Brown Rust)
Wheat leaf segments cv. Kanzler are placed on agar in multiwell plates (24-well format). The leaf segments are then inoculated with a spore suspension of the fungus. Plates were stored in darkness at 19° C. and 75% relative humidity. The formulated test compound diluted in water was applied 1 day after inoculation. The leaf segments were incubated at 19° C. and 75% relative humidity under a light regime of 12 hours light/12 hours darkness in a climate cabinet and the activity of a compound was assessed as percent disease control compared to untreated when an appropriate level of disease damage appears in untreated check leaf segments (6 to 8 days after application).
(§2) The following compounds at 200 ppm in the applied formulation give at least 80% disease control in this test when compared to untreated control leaf disks under the same conditions, which show extensive disease development.

[3] = test system: Phakopsora pachyrhizi; assay: Fungicidal activity against Phakopsora pachyrhizi / soybean / leaf disc preventative (Asian soybean rust); assay type: in vivo; settings: foliar, 200 ppm in the applied formulation, soybean leaf disks, inoculated one day after application, compared to untreated, read-out: disease control
Protocol: as §1
Example 3: Fungicidal Activity Against Phakopsora pachyrhizi/Soybean/Leaf Disc Preventative (Asian Soybean Rust)
Soybean leaf disks are placed on water agar in multiwell plates (24-well format) and sprayed with the formulated test compound diluted in water. One day after application leaf discs are inoculated by spraying a spore suspension on the lower leaf surface. After an incubation period in a climate cabinet of 24-36 hours in darkness at 20° C. and 75% rh leaf disc are kept at 20° C. with 12 h light/day and 75% rh. The activity of a compound is assessed as percent disease control compared to untreated when an appropriate level of disease damage appears in untreated check leaf disks (12 to 14 days after application).
as §2

[4] = test system: Puccinia recondita f, Sp. Tritici; assay: Fungicidal activity against Puccinia recondita f. sp. tritici / wheat / leaf disc preventative (brown rust); assay type: in vivo; settings: foliar, 200 ppm in the applied formulation, wheat leaf segments cv. Kanzler, inoculated 1 day after application, compared to untreated, read-out: disease control
Protocol: as §1
Example 1: Fungicidal Activity Against Puccinia recondita f, Sp. Tritici/Wheat/Leaf Disc Preventative (Brown Rust)
Wheat leaf segments cv. Kanzler were placed on agar in multiwell plates (24-well format) and sprayed with the formulated test compound diluted in water. The leaf disks were inoculated with a spore suspension of the fungus 1 day after application. The inoculated leaf segments were incubated at 19° C. and 75% relative humidity (rh) under a light regime of 12 hours light/12 hours darkness in a climate cabinet and the activity of a compound was assessed as percent disease control compared to untreated when an appropriate level of disease damage appears in untreated check leaf segments (7 to 9 days after application).
as §2

Row | SMILES | inhibition of growth at 20 ppm [1] [%] | melting point [°C] | pest or weed control at 200 ppm [2] [%] | pest or weed control at 200 ppm [3] [%] | pest or weed control at 200 ppm [4] [%]
1 | O=C(NCc1ccc(-c2noc(C(F)(F)F)n2)cc1F)OC1CCOCC1 [Compound 1.1, tetrahydropyran-4-yl N-[[2-fluoro-4-[5-(trifluoromethyl)-1,2,4-oxadiazol-3-yl)phenyl]methyl) carbamate] | ≥ 80 | 105 to 108 | ≥ 80 | ≥ 80 | ≥ 80
2 | O=C(NCc1ccc(-c2noc(C(F)(F)F)n2)cc1)OC1CCOCC1 [Compound 1.2, tetrahydropyran-4-yl N-[[4-[5-(trifluoromethyl)-1,2,4-oxadiazol-3-yl]phenyl]methyl]carbamate] | ≥ 80 | 104 to 106 | ≥ 80 | ≥ 80 | ≥ 80
3 | O=C(NCc1ccc(-c2noc(C(F)(F)F)n2)cc1)OCC1CC1 [Compound 1.3, cyclopropylmethyl N-[[4-[5-(trifluoromethyl)-1,2,4-oxadiazol-3-yl]phenyl]methyl] carbamate] | ≥ 80 | 108.2 to 109.8 | ≥ 80 | ≥ 80 | ≥ 80
4 | O=C(NCc1ccc(-c2noc(C(F)(F)F)n2)cc1)NCC1CC1 [Compound 2.1, 1-(cyclopropylmethyl)-3-[[4-[5-(trifluoromethyl)-1,2,4-oxadiazol-3-yl]phenyl]methyl]urea] | ≥ 80 | 158.8 to 165 | – | ≥ 80 | ≥ 80
5 | O=C(NCc1ccc(-c2noc(C(F)(F)F)n2)cc1F)NCC1CC1 [Compound 2.2, 1-(cyclopropylmethyl)-3-[[2-fluoro-4-[5-(trifluoromethyl)-1,2,4-oxadiazol-3-yl]phenyl]methyl]urea] | ≥ 80 | 157 to 160 | – | ≥ 80 | –
6 | O=C(NCc1ccc(-c2noc(C(F)(F)F)n2)cc1)NC1CC1 [Compound 2.3, 1-cyclopropyl-3-[[4-[5-(trifluoromethyl)-1,2,4-oxadiazol-3-yl]phenyl]methyl]urea] | ≥ 80 | 176 to 180.1 | ≥ 80 | ≥ 80 | ≥ 80
7 | O=C(NCc1ccc(-c2noc(C(F)(F)F)n2)cc1F)NC1CC1 [Compound 2.4, 1-cyclopropyl-3-[[2-fluoro-4-[5-(trifluoromethyl)-1,2,4-oxadiazol-3-yl]phenyl]methyl]urea] | ≥ 80 | 150.1 to 152.4 | ≥ 80 | ≥ 80 | ≥ 80
8 | O=C(NCc1ccc(-c2noc(C(F)(F)F)n2)c(F)c1)NC1CC1 [Compound 2.20, 1-cyclopropyl-3-[[3-fluoro-4-[5-(trifluoromethyl)-1,2,4-oxadiazol-3-yl]phenyl]methyl]urea] | ≥ 80 | 169 to 173 | ≥ 80 | ≥ 80 | ≥ 80
9 | O=C(NCc1ccc(-c2noc(C(F)(F)F)n2)c(F)c1)Nc1ccccc1Cl [Compound 2.21, 1-(2-chlorophenyl)-3-[[3-fluoro-4-[5-(trifluoromethyl)-1,2,4-oxadiazol-3-yl]phenyl]methyl]urea] | – | 173 to 178 | – | – | ≥ 80
10 | CCN(C(=O)NCc1ccc(-c2noc(C(F)(F)F)n2)cc1)C1CC1 [Compound 2.27, 1-cyclopropyl-1-ethyl-3-[[4-[5-(trifluoromethyl)-1,2,4-oxadiazol-3-yl]phenyl]methyl]urea] | ≥ 80 | – | ≥ 80 | ≥ 80 | ≥ 80
11 | COCC1(N(C)C(=O)NCc2ccc(-c3noc(C(F)(F)F)n3)cc2)CC1 [Compound 2.28, 1-[1-(methoxymethyl)cyclopropyl]-1-methyl-3-[[4-[5-(trifluoromethyl)-1,2,4-oxadiazol-3-yl]phenyl]methyl]urea] | ≥ 80 | – | ≥ 80 | ≥ 80 | ≥ 80
12 | C#CCN(C(=O)NCc1ccc(-c2noc(C(F)(F)F)n2)cc1)C1CC1 [Compound 2.30, 1-cyclopropyl-1-prop-2-ynyl-3-[[4-[5-(trifluoromethyl)-1,2,4-oxadiazol-3-yl]phenyl]methyl]urea] | ≥ 80 | – | ≥ 80 | ≥ 80 | ≥ 80
13 | CN(CC1CC1)C(=O)NCc1ccc(-c2noc(C(F)(F)F)n2)cc1 [Compound 2.31, 1-(cyclopropylmethyl)-1-methyl-3-[[4-[5-(trifluoromethyl)-1,2,4-oxadiazol-3-yl]phenyl]methyl]urea] | ≥ 80 | – | ≥ 80 | ≥ 80 | ≥ 80
14 | O=C(NCCc1ccc(-c2noc(C(F)(F)F)n2)cc1)NC1CC1 [Compound 2.32, 1-cyclopropyl-3-[2-[4-[5-(trifluoromethyl)-1,2,4-oxadiazol-3-yl]phenyl]ethyl]urea] | – | 147 to 159 | – | – | –
15 | O=C(NCc1ccc(-c2noc(C(F)(F)F)n2)cc1)n1ccnc1 [Compound 3.1, N-[[4-[5-(trifluoromethyl)-1,2,4-oxadiazol-3-yl]phenyl]methyl] imidazole-1-carboxamide] | ≥ 80 | 97 to 102 | ≥ 80 | ≥ 80 | ≥ 80
16 | O=C(NCc1ccc(-c2noc(C(F)(F)F)n2)c(F)c1)N1CCOCC1 [Compound 3.3, N-[[3-fluoro-4-[5-(trifluoromethyl)-l,2,4-oxadiazol-3-yl]phenyl]methyl] morpholine-4-carboxamide] | ≥ 80 | 82 to 94 | ≥ 80 | – | ≥ 80
17 | O=C(NCc1ccc(-c2noc(C(F)(F)F)n2)cc1)N1CCCC1 [Compound 3.4, N-[[4-[5-(trifluoromethyl)-l,2,4-oxadiazol-3-yl]phenyl]methyl] pyrrolidine-1-carboxamide] | ≥ 80 | – | ≥ 80 | ≥ 80 | ≥ 80
18 | O=C(NCc1ccc(-c2noc(C(F)(F)F)n2)cc1)N1CCCO1 [Compound 3.5, N-[[4-[5-(trifluoromethyl)-l,2,4-oxadiazol-3-yl]phenyl]methyl] isoxazolidine-2-carboxamide] | ≥ 80 | – | ≥ 80 | ≥ 80 | ≥ 80
